# According to article PMC8017616, “Discovery of two novel laccase-like multicopper oxidases from Pleurotus citrinopileatus and their application in phenolic oligomer synthesis” (Biotechnology for Biofuels, 2021):
# Where a name gives a salt, the structure may show the parent alone. Read-outs that look alike come from different tables or passages of the source.
# What was measured:
# Conditions in all cases: 50 mM phosphate-citrate buffer pH 4; routine assay 35 °C
# PcLac2 [1] = tested on: T1, PcLac2; experiment: spectrophotometric oxidation at […] nm, nonlinear Michaelis-Menten fit; assay type: biochemical, Pleurotus citrinopileatus
# T1 construct: native, purified from culture supernatant (Q Sepharose, DEAE Sepharose); about 75 kDa by SDS-PAGE; band also holds a copper radical oxidase-like protein
# PcLac1 [2] = tested on: T2, PcLac1; experiment: as above; assay type: biochemical, Pleurotus citrinopileatus
# T2 construct: native, purified from culture supernatant (Q Sepharose, DEAE Sepharose); 60 kDa by SDS-PAGE
# PcLac1 [3] = tested on: PcLac1
# PcLac2 [4] = tested on: PcLac2
SMILES,Km (PcLac2 [1]) [mM],Km (PcLac1 [2]) [µM],Km (PcLac1 [3]) [µM],Km (PcLac2 [4]) [µM]
"COc1cccc(OC)c1O [2,6-DMP, 2,6-dimethoxyphenol]",1.07 ± 0.105,672 ± 56,–,–
"CCn1c(=NN=c2sc3cc(S(=O)(=O)O)ccc3n2CC)sc2cc(S(=O)(=O)O)ccc21 [ABTS, 2,2′-Azino-bis-(3-ethylbenzthioazoline-6-sulfonic acid) diammonium salt]",–,–,60 ± 7,165 ± 15
